Assays:
Assay type in all cases: cell-based
Aspergillus flavus = test: Agar plate disc-diffusion, antifungal activity by inhibition zone; settings: Sabouraud's dextrose agar, 72 h
Procedure: (§1) The agar plate disc-diffusion method was applied. […] The discs were then placed onto the surface of agar plates (nutrient agar for bacteria and Sabouraud's dextrose agar for fungi) seeded with the test organism. Each plate contained 15 mL of the agar medium, previously seeded with 0.2 mL of the broth culture of each organism pregrown for 18 h. The plates were incubated at 37° C. for 48 h, and 72 h for fungi. The inhibition zones was measured in mm. Discs impregnated with DMSO were used as a control, and its inhibition zone was subtracted from the tested compound actual inhibition zone.
(§2) The results of the antimicrobial testing can be observed in Tables 1 and 2, below, using ciprofloxacin as a reference.

[1] = tested on: Chrysosporium keratinophilum; test: as above; settings: Sabouraud's dextrose agar, 72 h
Procedure: The agar plate disc-diffusion method was applied. Sterilized filter papers (6 mm in diameter) were wetted with 10 μL of a solution N′-(2-(5-(4-chlorophenyl)-1,3,4-oxadiazol-2-ylthio)acetoxy)-4-methoxybenzimidamide (3) to be tested, containing 10 mg/mL in DMSO, and the discs were allowed to air dry. The discs were then placed onto the surface of agar plates (nutrient agar for bacteria and Sabouraud's dextrose agar for fungi) seeded with the test organism. Each plate contained 15 mL of the agar medium, previously seeded with 0.2 mL of the broth culture of each organism pregrown for 18 h. The plates were incubated at 37° C. for 48 h, and 72 h for fungi. The inhibition zones was measured in mm. Discs impregnated with DMSO were used as a control, and its inhibition zone was subtracted from the tested compound actual inhibition zone.
as §2

Pseudomonas aeruginosa = test: Agar plate disc-diffusion, antibacterial activity by inhibition zone; settings: nutrient agar, 37° C., 48 h
Procedure: as §1, §2

Bacillus cereus = test: as above; settings: nutrient agar, 37° C., 48 h
Procedure: as §1, §2

Escherichia coli = test: as above; settings: nutrient agar, 37° C., 48 h
Procedure: as §1, §2

Staphylococcus aureus = test: as above; settings: nutrient agar, 37° C., 48 h
Procedure: as §1, §2

[2] = A = concentration of comp. = 10,000 μL
[3] = B = concentration of comp. = 30,000 μL
[4] = C = concentration of comp. = 50,000 μL

`O=C(O)c1cn(C2CC2)c2cc(N3CCNCC3)c(F)cc2c1=O` [Cip., ciprofloxacin] gave an inhibition zone (Aspergillus flavus; [2]) of 29 mm, an inhibition zone (Aspergillus flavus; [3]) of 30 mm and an inhibition zone (Aspergillus flavus; [4]) of 42 mm. The inhibition zone [1, 2] was 29 mm, the inhibition zone [1, 3] was 30 mm and the inhibition zone [1, 4] was 53 mm. For the same compound, the inhibition zone (Pseudomonas aeruginosa; [2]) was 29 mm, the inhibition zone (Pseudomonas aeruginosa; [3]) was 30 mm and the inhibition zone (Pseudomonas aeruginosa; [4]) was 53 mm. It also gave an inhibition zone (Bacillus cereus; [2]) of 29 mm, an inhibition zone (Bacillus cereus; [3]) of 30 mm and an inhibition zone (Bacillus cereus; [4]) of 42 mm. For the same compound, the inhibition zone (Escherichia coli; [2]) was 30 mm, the inhibition zone (Escherichia coli; [3]) was 39 mm and the inhibition zone (Escherichia coli; [4]) was 60 mm. The inhibition zone (Staphylococcus aureus; [2]) was 43 mm, the inhibition zone (Staphylococcus aureus; [3]) was 44 mm and the inhibition zone (Staphylococcus aureus; [4]) was 53 mm.

`COc1ccc(/C(N)=N/OC(=O)CSc2nnc(-c3ccc(Cl)cc3)o2)cc1` [Compound 3, N′-(2-(5-(4-chlorophenyl)-1,3,4-oxadiazol-2-ylthio)acetoxy)-4-methoxybenzimidamide] was tested, and the inhibition zone (Aspergillus flavus; [2]) was 21 mm, the inhibition zone (Aspergillus flavus; [3]) was 22 mm and the inhibition zone (Aspergillus flavus; [4]) was 35 mm. For the same compound, the inhibition zone [1, 2] was 24 mm, the inhibition zone [1, 3] was 28 mm and the inhibition zone [1, 4] was 41 mm. It also gave an inhibition zone (Pseudomonas aeruginosa; [2]) of 24 mm, an inhibition zone (Pseudomonas aeruginosa; [3]) of 28 mm and an inhibition zone (Pseudomonas aeruginosa; [4]) of 40 mm. For the same compound, the inhibition zone (Bacillus cereus; [2]) was 28 mm, the inhibition zone (Bacillus cereus; [3]) was 31 mm and the inhibition zone (Bacillus cereus; [4]) was 39 mm. It also gave an inhibition zone (Escherichia coli; [2]) of 29 mm, an inhibition zone (Escherichia coli; [3]) of 38 mm and an inhibition zone (Escherichia coli; [4]) of 47 mm. For the same compound, the inhibition zone (Staphylococcus aureus; [2]) was 20 mm, the inhibition zone (Staphylococcus aureus; [3]) was 24 mm and the inhibition zone (Staphylococcus aureus; [4]) was 36 mm.

Reference: US11897850B1, “N′-(2-(5-(4-chlorophenyl)-1,3,4-oxadiazol-2-ylthio)acetoxy)-4-methoxybenzimidamide as an antimicrobial compound” (KING FAISAL UNIVERSITY, priority 2023, dated 2024)
